In patent US11254671B2, “Chemical compounds” (GLAXOSMITHKLINE INTELLECTUAL PROPERTY DEVELOPMENT LIMITED, priority 2017, dated 2022):

Key:
[1] = test system: phosphorylated Akt at serine 473 (pAKTs473) in primary human lung fibroblasts; assay: Highthroughput phosphorylated Akt (Ser473) in vitro immunoassay (MSD); format: cell-based; details: Fibroblast, 1 h compound, PDGF-BB 10 ng/ml for 10 min, mean of multiple experiments, read-out: mean pIC50, inhibition of pAkt (Ser473) (converted)
From the text: Highthroughput Phosphorylated Akt (Ser473) In Vitro Immunoassay
Immunoassay to measure effect of test compounds on phosphorylated Akt at serine 473 (pAKTs473) in primary human lung fibroblasts (Lonza Group Ltd, Basel, Switzerland, Catalogue No. CC-2512) using the MesoScale Discovery (MSD) platform to quantify levels of total Akt and pAKTser473.
Human lung fibroblasts were routinely maintained in fibroblast basal medium supplemented with 2% foetal bovine serum (FBS), 0.1% human fibroblast growth factor (FGF)-B, 0.1% insulin, 0.1% GA-100 (Lonza Group Ltd, Basel, Switzerland, Catalogue No. CC-3132) at 37° C. in 5% CO2 according to the manufacturer's protocol.
For the assay, cells were harvested using Trypsin/EDTA, (Lonza Group Ltd, Basel, Switzerland, Catalogue No. CC-5012), at working concentration of 0.025%, resuspended to give 3×10^5 cells/ml and 50 ul/well seeded into 384-well plates (Greiner Group, Kremsmunster, Austria, Catalogue No. 781091) in media containing 0.4% FBS and incubated o/n at 37° C. in 5% CO2.
Test compounds were dissolved in 100% DMSO to give 10 mM stock solutions and serially diluted to generate an 11-point concentration response curve. Compound were further diluted by […] into 384-well V-bottom polypropylene plates (Greiner Group, Kremsmunster, Austria, Catalogue No. 781280) with media containing 0.4% FBS to give 50 μM top compound concentration in 0.5% DMSO.
Compounds were transferred to 384-well plates contacting cells (0.1% DMSO final) and incubated for 1 h at 37° C. in 5% CO2, prior to stimulation with platelet-derived growth factor (PDGF)-BB (R&D Systems, Catalogue No. 220-BB) at 10 ng/ml (final) for 10 min at RT. Cell assay plates were incubated on ice and treated with lysis buffer (Cell Signalling Technology, Catalogue No. 9806) containing protease and phosphatase inhibitors (Thermo Scientific, Catalogue No. 78444) followed by shaking for 30 min at 4° C.
MSD plates (MSD, MA6000 384-well GAR plate, Catalogue No. L21RA-2) were blocked with blocking buffer containing TBS (MSD, Cat. No. R61TX-1) with 0.5% bovine serum albumin (BSA) (Sigma Aldrich, Cat. No. A7906), 0.1% tween-20 (Sigma Aldrich, Catalogue No. P2287) and coated with rabbit-anti-human pAkt (s473) ab (Cell Signalling Technology, Catalogue No. CST #4060) at RT with shaking, followed by washing (×3) with 1×TBS wash reagent containing 0.1% Tween-20. Cell lysates (30 ul) were added and MSD plates centrifuged at 1000 rpm at 4° C. o/n.
Plates were washed with 1×TBS wash buffer (×3), prior to addition of mouse-anti-human-total Akt ab (1 mg/ml) (Upstate (Milipore), Catalogue No. 05-591) in blocking buffer and shaken at RT for 1 h. After washing with 1×TBS wash buffer (×3), plates were incubated with goat-anti-mouse SULFO-TAG detection ab (MSD, Catalogue No. R32AC-1) (1:500 in blocking buffer) for 1 h at RT. Plates were washed with 1×TBS (×3) and read buffer (2×) (MSD, Catalogue No. R92TC-1) added before detecting electrochemiluminescence (MSD Sector Imager 6000).
Data analysis was performed by determining % inhibition values for test compounds relative to the minimum (+PDGF-BB stimulation) and maximum responses (no PDGF-BB stimulation) with non-linear regression analysis to determine IC50 values for test compounds.

mTOR = target: T1, mTOR (Homo sapiens, UniProt P42345); assay: mTOR kinobeads assay (competition-binding assay); details: HuT-78 cell extract, endogenously expressed mTOR, bead-immobilized capturing ligand; mean of multiple experiments; read-out: mean pIC50, affinity for mTOR (converted)
T1 construct: capturing of endogenously expressed target proteins from cell extracts by a bead-immobilized capturing ligand; endogenous in cells; host or cells: HuT-78 cells (ECACC 88041901), cell lysate
Experimental: The affinity of test compounds for mTOR was determined in the mTOR kinobeads assay. This is a competition-binding assay based on the capturing of endogenously expressed target proteins from cell extracts by a bead-immobilized capturing ligand in presence of the test compound.
HuT-78 cells (European Collection of Authenticated Cell Cultures, 88041901) were cultured according to vendor's instructions. Frozen cell pellets were homogenized in 3× pellet volumes lysis buffer (50 mM Tris-HCl, 0.4% (v/v) Igepal-CA630, 5% glycerol, 150 mM NaCl, 1.5 mMMgCl2, 25 mM NaF, 1 mM sodium vanadate, 1 mM DTT, pH 7.5, supplemented with EDTA-free protease inhibitor tablet (Roche)). The sample was dispersed using a Dounce homogenizer, kept rotating for 30 min at 4° C., and centrifuged for 10 min at 20 000 g at 4° C. The supernatant was centrifuged again for 1 h at 145 000 g. The protein concentration was determined by Bradford assay (BioRad), aliquots were snap frozen in liquid nitrogen and stored at −80° C.
The capturing matrices were generated by derivatizing N-hydroxysuccinimide (NHS) activated Sepharose 4 beads (GE Healthcare) with the functionalized ligands Compound A and Compound C at a ligand density of 5 mM. Remaining NHS-groups were blocked with ethanolamine.
For the mTOR kinobeads assay the matrices were combined in a 1:1 ratio and equilibrated in DP buffer (50 mM Tris-HCl (pH 7.5), 0.4% (v/v) Igepal-CA630, 5% (v/v) glycerol, 150 mM NaCl, 1.5 mM MgCl2, 25 mM NaF, 1 mM Na3VO4, 1 mM dithiothreitol). All steps of the mTOR kinobeads assay were performed at 4° C. or on ice. The cell lysate was diluted with DP buffer to a final concentration of 5 mg/ml and a final detergent concentration of 0.4% (v/v) Igepal-CA630. For the assay 250 μg cell lysate and 2.5 μl capturing matrix per well (final assay volume: 75 μl) were incubated in the presence of test compounds in a 384-well filter plate (MultiScreenHTS HV Filter Plate, 0.45 μm, MZHVNOW50, Merck Millipore). Each plate contained 16 positive (100 μM Compound B) and 16 negative (2% v/v DMSO) control wells. Compounds were tested in a concentration-response applying 1:3 or 1:4 dilution steps for in total 11 data points. DMSO concentration was 2% (v/v). After 2 h incubation on an overhead shaker (Roto-Shake Genie, Scientific Industries Inc.) at 4° C. the non-bound fraction was removed by washing the beads with DP buffer. Proteins retained on the beads were eluted in SDS sample buffer (200 mM Tris (pH 7.4), 250 mM Trizma Base, 4% (w/v) SDS, 20% (v/v) glycerol, 0.01% (w/v) bromophenol blue, 50 mM dithiothreitol) into a collection plate (384 well polypropylene microplate, V-shape, Greiner, 781 280). Eluates were spotted on nitrocellulose membranes (400 nl per spot) using an automated pin-tool liquid transfer (Biomek FX, Beckman). After drying, the membranes were rehydrated in 20% (v/v) ethanol and blocked by incubation with Odyssey blocking buffer (LICOR, 927-40000) for 1 h at room temperature. Blocked membranes were incubated overnight at 25° C. with Odyssey blocking buffer supplemented with a specific anti-mTOR antibody (Cell Signaling, 2972; 1:500) and 0.4% TWEEN-20. Then the membranes were washed in PBST buffer and incubated for 60 minutes at room temperature with the detection antibody (IRDye™ labelled antibody from LI-COR) diluted in Odyssey blocking buffer (LICOR 927-40000) containing 0.2% TWEEN-20. Then the membranes were washed with PBST and finally rinsed twice with PBS buffer to remove residual Tween-20. The membranes were then scanned with the Odyssey® Infrared Imaging System (LI-COR Biosciences). Fluorescence signals were recorded and analyzed according to the instructions of the manufacturer. Concentration response curves were computed with the software Activity Base. All data were normalized to the mean of 16 high (negative control) and 16 low (positive control) control wells on each plate. […]

[2] = test system: type I collagen deposition in primary lung fibroblasts; assay: Highthroughput type I collagen deposition (scar-in-a-jar) high content screening assay; format: cell-based; details: Homo sapiens, Primary lung fibroblast, 72 h, human pulmonary fibroblasts, TGF-β 1 ng/ml, Ficoll crowding, mean of multiple experiments, read-out: mean pIC50, inhibition of type I collagen deposition (converted)
Experimental: Example 53 Highthroughput Type I Collagen Deposition (Scar-in-a-Jar) High Content Screening Assay
Highthroughput, cellular type I collagen deposition was measured by adapting a published method; scar-in-a-jar (Chen et al., 2009) to primary lung fibroblasts derived from human tissue and combining with high content analysis to permit fluorescent quantification of collagen deposited in the extracellular matrix (ECM). The human biological samples were sourced ethically and their research use was in accord with the terms of the informed consents
Test compounds were dissolved in 100% DMSO to give 10 mM (stocks) and further diluted to give half log dilutions to generate an 11 point concentration response curve. 1 ul was transferred to 384-well plates (Greiner Group, Kremsmunster, Austria, Catalogue No Greine 781280r).
Human pulmonary fibroblasts were maintained in DMEM media (Gibco, Catalogue No 21969) supplemented with 4 mM L-glutamine (Gibco Catalogue No 25030-024) and 10% heat inactivated FBS (Gibco, Catalogue No 10099-141) at 37° C. in 10% CO2. Cells were harvested and resuspended at 4×10^6 cells/ml in a T175 cell culture flask (BD Falcom, Catalogue No: 353112) containing 50 mL of culture media. After 4 days 37° C. in 10% CO2, cells were harvested and seeded at 4000 cells per well (50 μL/well) into 384-well plates (BD Falcon, Catalogue No 353962Greiner) in assay media (0.4% heat inactivated FBS, 4 mM L-glutamine). Plates were sealed with breathable seals (Sigma, Catalogue No. BEM-1). Assay plates were incubated for 72 h at 37° C. in 10% CO2.
Assay media was supplemented with 112.5 mg/ml Ficoll 70 (Sigma, Catalogue No F2878), 75 mg/ml Ficoll 400 (Sigma, Catalogue No F4375) and 50 μg/ml ascorbic acid (Sigma, Catalogue No A8960). 30 μL assay media were added to 1 μl compound (37 μM compound concentration in 1% DMSO). Diluted compounds (10 μL) were transferred to plates containing cells and incubated for 3 h at 37° C. in 10% CO2. Transforming growth factor (TGF)-β (R&D systems, Catalogue No 100-B/CF) was reconstituted to give 10 μg/mL (stock) and further diluted in assay media containing Ficoll and ascorbic acid (1 in 3333). TGF-β was added to cell plates (1 ng/ml final) and cells incubated for 72 h at 37° C. in 10% CO2.
Media was aspirated from cells and 30 μL/well 100% ice-cold methanol added and incubated at RT for 5 min to fix cells. Methanol was aspirated and cells washed with PBS (3×). To block and permeabilise, cells were incubated with PBS containing 1% BSA and 0.1% Triton X 100 for 20 min, followed by PBS wash (3×). Cells were incubated with mouse anti human type I collagen monoclonal antibody (Sigma, Catalogue No C2456) diluted 1:1000 in PBS for 24 h at 4° C. Cells were washed with PBS containing 0.1% Tween-20 (3×) and incubated with secondary alexa fluor 488 goat-anti-mouse antibody (Invitrogen, Catalogue No A11001, 1 in 500 in PBS) and Hoechst 33342 (Sigma, Catalogue No H21492), 1 in 1000 in PBS) for 1 h at RT, prior to washing with PBS containing 0.1% Tween (×4).
Type I collagen immunoreactivity was detected using the INCell 2000 Analyzer (GE Healthcare, INcell 2000) set to excitation and emission wavelengths for DAPI and FITC with laser focus and exposure adjusted to appropriate levels. Images were imported and analysed using Columbus software (Perkin Elmer) and computational algorithms to quantify “total collagen area” and “cell count”.
Data analysis was performed by determining % inhibition values for test compounds relative to the minimum (media only) and maximum responses (TGF-βstimulation) with non-linear regression analysis to determine IC50 values for test compounds.

Row | SMILES | IC50 [1] | IC50 (mTOR) | IC50 [2]
1 | CNCc1cc2nc(-c3cc(CS(C)(=O)=O)cc(N4C5CCC4COC5)n3)ccc2[nH]1 [Example 47, ({5-[4-(methanesulfonylmethyl)-6-{3-oxa-8-azabicyclo[3.2.1]octan-8-yl}pyridin-2-yl]-1H-pyrrolo[3,2-b]pyridin-2-yl}methyl)(methyl)amine] | 0.00316 to 0.316 µM | 0.00251 to 0.316 µM | 
2 | CCCC1COCCN1c1cc(CS(C)(=O)=O)cc(-c2ccc3[nH]c(CNC)cc3n2)n1 (stereo not shown) [Example 48, ({5-[4-(methanesulfonylmethyl)-6-(3-propylmorpholin-4-yl)pyridin-2-yl]-1H-pyrrolo[3,2-b]pyridin-2-yl}methyl)(methyl)amine] | 0.00316 to 0.316 µM |  | 0.0398 to 1 µM
